# Assay results reported in patent US20230372263A1, “METHODS AND COMPOSITIONS FOR TREATING AMYOTROPHIC LATERAL SCLEROSIS” (Amylyx Pharmaceuticals, Inc., priority 2022, published 2023).
# Key:
# [1] = Population pharmacokinetic model and simulations of PB and PAA (healthy subjects and ALS patients); set-up: species or system human; conditions: for Cmax, Mean: from individual Bayesian (post hoc) parameter estimates; for Cmax, 2.5th percentile / Cmax, 97.5th percentile / Cmax, Geometric mean / Cmax, Median: post hoc Bayesian estimates; for V, volume of distribution of PAA: population PK
# Source text: The order of administration with and without food was randomly assigned. […] Subjects were advised to take the drug before a meal. […] No inter-occasion variability (IOV) was included.
# [2] = Phase II AMX3500 (CENTAUR) sparse sampling: steady-state plasma concentrations of TURSO/TUDCA, UDCA, GUDCA in ALS patients; format: in vivo, human; conditions: patients; comparison across studies
# Experimental: • 1. […] Treatment is administered as one sachet daily for the initial 3 weeks and then increased if tolerated to one sachet twice daily. […] Sampling times are randomly assigned to occur at either 1 or 4 hours post-dose at the 12 week visit and the other time at the 24 week visit. • Treatment duration: 24 weeks • 2.
# • Protocol AMX3500: sparse sampling in 87 subjects with ALS. Approximately 2 samples are collected for each subject, 1 or 4 hours post dose following 12 and 24 weeks of treatment. • Protocol A35-002: rich sampling in 14 healthy adults. Approximately 21 samples are collected over 24 hours for each subject on two occasions, once following a high fat meal and the other under fasting conditions.
# Subjects were advised to take the drug before a meal. […] Referred to as protocol 3500.
# A study was carried out to examine plasma concentration data in various subgroups for the protocol AMX3500 Phase 2 study. This example summarizes plasma concentrations of TUDCA and 2 metabolites, also related acids, UDCA, the de-conjugated TUDCA metabolite, and GUDCA, the glycine conjugate of UDCA.
# For each of the 2 treatment arms (treatment and placebo), subjects were further divided into 2 sample sequence groups for schedule of pharmacokinetic measurements: • 1. 1 hour post-dose for the Week 12 visit and 4 hours post-dose for the Week 24 visit • 2. 4 hours post-dose for the Week 12 visit and 1 hour post-dose for the Week 24 visit
# Twenty-four distinct medication descriptions were identified as containing antibiotics. Dates of antibiotic use were compared to dates of visits and if the antibiotic use date range contained the visit date, then that visit was flagged for that subject's data for antibiotic use. […] These antibiotics could hypothetically be in a subject's body still if this event occurred. However, it was observed that only a small number of subjects took antibiotics near to visit dates but not overlapping visit dates. In other cases, subjects were taking antibiotics on the date of one visit but not the others. Some subjects are therefore in both categories of antibiotic use and nonuse, though no individual visits for a subject are counted in both categories at the same time.
# Subjects whose race were recorded as “Black” or “African American” were evaluated according to the standard Glomerular Filtration Rate (eGFR) rating for that race. The other standard eGFR rating used, sometimes referred to as a standard for people who are White, was applied to subjects of all other races. These rates were analyzed as continuous in mL/min/1.73 m2 units and as the following categories: • 1. Less than 90 mL/min/1.73 m^2 • 2. Equal to or greater than 90 mL/min/1.73 m^2
# Age was converted from a continuous variable to 2 categories: • 1. As old or older than 65 years old • 2. Younger than 65 years old
# All boxplots boxes are bounded at the 25th and 75th percentile, with whiskers at 10th and 90th percentiles, outliers beyond that as points, the black line as median, and red line as mean.
smiles,measurement,setting,value
"O=C(O)Cc1ccccc1 [PAA, phenylacetate]","Cmax, Mean","[1]; ALS patients, Fasting",24100 ng/mL
same,"Cmax, 2.5th percentile","[1]; ALS patients, Fasting",10100 ng/mL
same,"Cmax, 97.5th percentile","[1]; ALS patients, Fasting",44200 ng/mL
same,"Cmax, Geometric mean","[1]; ALS patients, Fasting",22300 ng/mL
same,"Cmax, Median","[1]; ALS patients, Fasting",23800 ng/mL
same,"Cmax, Mean","[1]; ALS patients, Fed",16600 ng/mL
same,"Cmax, 2.5th percentile","[1]; ALS patients, Fed",8160 ng/mL
same,"Cmax, 97.5th percentile","[1]; ALS patients, Fed",25300 ng/mL
same,"Cmax, Geometric mean","[1]; ALS patients, Fed",15600 ng/mL
same,"Cmax, Median","[1]; ALS patients, Fed",16900 ng/mL
same,estimated steady-state mean Cmax,"[1]; ALS patients, based on population PK",24100 ng/mL
same,"V, volume of distribution of PAA",[1]; Bootstrap Median,56.1 L
same,"V, volume of distribution of PAA",[1]; Final Model mean estimate,56.3 L
same,accumulation in plasma after once- or twice-daily dosing,[2],no accumulation
